Data taken from patent EP0452507A1, “MEDICINE COMPRISING TOCOPHERYL GLYCOSIDE AS ACTIVE INGREDIENT” (NIPPON HYPOX LABORATORIES INCORPORATED, priority 1989, dated 1991).
Where two headings read alike, the source gives them in different places.

Tests used:
[1] = system: delayed-type hypersensitivity; assay: picryl chloride-induced delayed-type hypersensitivity, ear swelling ratio; format: in vivo, mice; conditions: for swelling ratio (ear): versus Control group
Experimental: 76 Male mice (C57BU6Ncrj) weighing 18 to 20 g were used. The abdominal portion of each mouse was shaved such that the shaved portion was about 1 cm^2. Thereafter, 20 µl of an ethanol solution of 7 % picryl chloride was applied to the shaved portions for sensitization.
Eighteen out of the 76 mice were used as Control group. A physiological saline solution containing 10 % Nikkol (Nikkol: trade name, dissolving aid, supplied by Nikko Chemical Co., Ltd.) was administered intraperitoneally to the 18 mice for the consecutive 5 days after the sensitization, and ear thickness of each of these 18 mice was measured on the eighth day after the sensitization. Thereafter, 20 µl of an olive oil solution of 1 % picryl chloride was applied to the ear of each of the mice to cause delayed-type hypersensitivity.
The above pharmaceutical solutions were administered intraperitoneally at the above-described doses for the five consecutive days after the sensitization, and ear thickness of each of these mice was measured on the eighth day after the sensitization. Thereafter, 20 µl of an olive oil solution of 1 % picryl chloride was applied to the ear of each of the mice to cause delayed-type hypersensitivity.
24 Hours after the delayed-type hypersensitivity was induced, the swelling of the ear of each of the mice of Control group and Example groups ①, ②and③ was measured with a dial thickness gauge. On the basis of the values of the ear thickness measured before the application of the olive oil solution of 1 % picryl chloride, the swelling ratio of each of Example groups ①, ② and ③ and Control group was determined.
And, the swelling ratio of the mice was determined.
At first, the abdominal portion of each of forty ICR male mice weighing 20 to 25 g was shaved such that the shaved portion was about 1 cm^2. Thereafter, 20 µl of an ethanol solution of 7 % picryl chloride was applied to the shaved portions for sensitization.

IgE antibody = format: in vivo, rats; conditions: for IgE antibody amount in serum, Average value: group average, maximum dilution of serum showing positive reaction
Experimental: At first, 20 male SD rats weighing 180 to 220 g were prepared. Egg-white albumin in an amount of 1 mg per rat was prepared as an antigen to induce the IgE antibody-antigen mediating immune response. Further, a mixture of 20 mg/rat of aluminum hydroxide with 0.6 mi/rat of pertussis vaccine was prepared as an immune aid (adjuvant).
Then, the above antigen and the above adjuvant were equally administered intracutaneously into the four footpads of each rat for sensitization.
24 Hours after the sensitization, the footpad swelling of each rat was measured by volumetry to determine the swelling ratio (unit: %). Then, the rats were separated into four groups each consisting of 5 rats such that the average swelling ratio of one group was nearly equal to that of another group.
Thereafter, one of the four groups was used as Control group, and a physiological saline solution of 10 % Nikkol (trade name, dissolving aid, supplied by Nikko Chemical Co., Ltd.) was administered intraperitoneally to each rat for the 11 consecutive days after the group separation, and on 15th day after the group separation, the serum of each rat was collected, and measured for an IgE antibody amount by means of a 48-hour homologous PCA reaction (passive cutaneous anaphylaxis reaction) as an index. In addition, the IgE antibody amount is shown in terms of a maximum dilution (unit: %) of serum showing positive reaction (blue spot having a diameter of not less than 5 mm).
Two groups of the remaining three groups were used as Example groups ⑥ and 0. A physiological saline solution of 10 % Nikkol containing VIE-MAN was administered intraperitoneally to each rat of Example group ⑥ in such a dose that the amount of VIE-MAN was 30 mg/kg/day for 11 days after the group separation. And, a physiological saline solution of 10 % Nikkol containing VIE-MAN was administered intraperitoneally to each rat of Example group 0 every other day (number of days for administration: 6 days) in such a dose that the amount of VIE-MAN was 100 mg/kg/day for 11 days after the group separation. Then, on 15th day after the group separation, the serum of each rat was collected, and measured for an IgE antibody amount in the same manner as that for Control group.
One remaining group of the four groups was used as Comparative Example group @. A physiological saline solution of 10 % Nikkol containing hydrocortisone which was an adrenocortical hormone preparation was administered intraperitoneally to each rat in such a dose that the amount of the hydrocortisone was 10 mg/kg/day for the consecutive 11 days after the group separation. Then, on 15th day after the group separation, the serum of each rat was collected, and measured for an IgE antibody amount in the same manner as that for Example groups 6 and ⑦.

adjuvant arthritis = adjuvant arthritis (Freund's complete adjuvant), right hind paw swelling by volumetry; format: in vivo, rats; conditions: Example 6, Fig. 5; for inhibition activity against acute inflammation (before the 14th day) and adjuvant arthritis (after 17th day): VIE-MAN 10 and 30 mg/kg/day, depending upon the dose, indomethacin 10 mg/kg/day, intraperitoneally
Experimental: 24 male SD rats weighing 180 to 220 g were used, and measured for a size of the subplantar region of the right hind paw. As a substance to cause adjuvant arthritis, 0.05 ml/rat of Freund's complete adjuvant [ADJUVANT COMPLETEFREUND, trade name, supplied by Difco] was used.
Then, the above Freund's complete adjuvant was administered intracutaneously into the subplantar region of right hind paw of each rat, and 24 hours after the administration, the swelling on the right hind paw of each rat was measured by volumetry to determine a swelling ratio. The above rats were separated into four groups each consisting of 6 rats such that the average swelling ratio of one group was nearly equal to that of another group.
Thereafter, one out of the four groups was used as Control group. A physiological saline solution of 10 % Nikkol was administered intraperitoneally to each rat of this group for the consecutive 22 days after the group separation, and the swelling on the right hind paw was measured by volumetry every day after the administration of the physiological saline solution of 10 % Nikkol. The average of swelling ratios as a group for each day was determined on the basis of the values of the sizes of the subplantar regions of the right hind paws obtained by the measurement prior to the administration of the Freund's complete adjuvant.
The procedure for Control group was repeated except that a physiological saline solution of 10 % Nikkol containing VIE-MAN in place of the physiological saline solution of 10 % Nikkol was administered intraperitoneally in such a dose that the amount of VIE-MAN was 10 mg/kg/day.
The procedure for Control group was repeated except that a physiological saline solution of 10 % Nikkol containing VIE-MAN in place of the physiological saline solution of 10 % Nikkol was administered intraperitoneally in such a dose that the amount of VIE-MAN was 30 mg/kg/day.
The remaining one group was used as Comparative Example group ⓕ. The procedure for Example groups @ and @ was repeated except that a physiological saline solution of 10 % Nikkol containing indomethacin which was a nonsteroidal anti-inflammatory preparation (antipyretic analgesic antiphlogistic preparation) in place of the physiological saline solution of 10 % Nikkol was administered intraperitoneally in such a dose that the amount of the indomethacin was 10 mg/kg/day, and the average of swelling ratios as a group was determined.

[2] = Example 2, Fig. 2, ICR male mice, 100 mg/kg/day intraperitoneally
[3] = Example 2, ICR mice, 100 mg/kg/day intraperitoneally

SMILES | swelling ratio (ear) [1, 2] | side effects such as a reduction in body weight [1, 3] | inhibition activity against the IgE antibody production (IgE antibody; same test as Example 3 with VIE-GLU in place of VIE-MAN) | delayed-type hypersensitivity prevented and cured ([1]; Example 1, Fig. 1, 10, 30 and 100 mg/kg/day intraperitoneally) | swelling ratio (ear) ([1]; Example 1, Fig. 1, C57BU6Ncrj mice, 10, 30 and 100 mg/kg/day intraperitoneally for 5 days after sensitization, 24 hours after induction) | preventive and therapeutical effect on delayed-type hypersensitivity (comparison) ([1]; Example 1, Fig. 1, VIE-MAN 10, 30, 100 mg/kg/day versus methotrexate 1 mg/kg/day, intraperitoneally) | side effects such as a reduction in body weight ([1]; Example 1, mice, 10, 30 and 100 mg/kg/day intraperitoneally for 5 days) | average value of the IgE antibody amounts as a group unit (IgE antibody; 30 mg/kg/day (11 days) or 100 mg/kg/day (6 days) intraperitoneally, versus Control group) | inhibition activity against the IgE antibody production (IgE antibody; Example 3 / Comparative Example 2, VIE-MAN 30 or 100 mg/kg/day, hydrocortisone 10 mg/kg/day, intraperitoneally) | IgE antibody amount in serum, Average value (IgE antibody; 30 mg/kg/day (total 11 days) intraperitoneally) | IgE antibody amount in serum, Average value (IgE antibody; 100 mg/kg/day (total 6 days) intraperitoneally) | average of the swelling ratios (adjuvant arthritis; 10 and 30 mg/kg/day intraperitoneally for 22 days, versus Control group) | inhibition activity against acute inflammation (before the 14th day) and adjuvant arthritis (after 17th day) (adjuvant arthritis) | activity against acute inflammation and adjuvant arthritis compared with VIE-MAN (adjuvant arthritis; indomethacin 10 mg/kg/day intraperitoneally)
Cc1c(C)c2c(c(C)c1OC1OC(CO)C(O)C(O)C1O)CCC(C)(CCCC(C)CCCC(C)CCCC(C)C)O2 (racemic) [VIE-GLU, dl-α-tocopheryl-,8-D-glucoside] | significantly lower than that of Control group | not observed | excellent inhibition activity |  |  |  |  |  |  |  |  |  |  | 
Cc1c(C)c2c(c(C)c1OC1OC(CO)C(O)C(O)C1O)CCC(C)(CCCC(C)CCCC(C)CCCC(C)C)O2 (racemic) [VIE-MAN, dl-a-tocopheryl-a-D-mannoside] | significantly lower than that of Control group | not observed |  | dose-dependently prevented and cured | significantly lower than that of Control group | superior to methotrexate | not observed | significantly lower than that of the IgE antibody amounts of Control group | excellent inhibition activity | 166.4 | 128.0 | significantly lower than that of the swelling ratios of Control group | excellent inhibition activity | 
COc1ccc2c(c1)c(CC(=O)O)c(C)n2C(=O)c1ccc(Cl)cc1 [indomethacin, reference compound] |  |  |  |  |  |  |  |  |  |  |  |  | showed inhibitory activity against both acute inflammation and adjuvant arthritis | much lower than that of VIE-MAN
